Literature values as cited in patent US20230139125A1, “DIETARY SUPPLEMENT FOR IMPROVING BRAIN PERFORMANCE” (priority 2021, published 2023).

Assays:
[1] = tested on: age-related memory loss; conditions: end of six-month period; participants with relatively low memory scores at start; compared to placebo
[2] = tested on: brain-derived neurotrophic factor (i.e. BDNF); conditions: ingesting small amounts

Substance | memory [1] | brain-derived neurotrophic factor (i.e. BDNF) [2]
Phosphatidylserine [PS] | significant improvement in memory | –
chlorogenic acids | – | not obtained
